Results published in patent US8257755B2, “Metabolic syndrome-improving agent and medicine, supplement, functional food and food additive containing the same” (ARKRAY, Inc., priority 2005, dated 2012).

Assays:
[1] = system: 3T3-L1 cells; assay: Adiponectin secretion amount in 3T3-L1 medium supernatant by ELISA; type: cell-based, mouse; conditions: medium 7 days after differentiation induction, non-treatment control 4.27 ± 0.32, average ± standard error
Procedure: Next, culture preadipocytes 3T3-L1 were thawed, inoculated in a 100 mm dish and cultured until 3T3-L1 cells reached about 80% confluence. A single dish of 3T3-L1 that had reached about 80% confluence was subcultured to a single 6-well plate and further cultured until the 3T3-L1 cells reached confluence in the 6-well plate, and then the medium was replaced with the differentiation induction medium, followed by differentiation induction. 48 hours later, the medium was replaced with the differentiation promotion medium, and thereafter, the medium was replaced with the differentiation promotion medium every two days. 7 days after the initiation of the differentiation induction, mRNA was extracted using Sepasol-RNA I Super (trade name; manufactured by Nacalai Tesque, Inc.), and the mRNA expression amounts of 36B4, aP2 and adiponectin, which were indicators of an early period of adipocyte differentiation, were measured using Light Cycler (TM). Also, the medium 7 days after the differentiation induction was taken in an amount of 1 mL from each well, and the amount of adiponectin in the medium supernatant was measured using a mouse/rat adiponectin ELISA kit (manufactured by Otsuka Pharmaceutical Co., Ltd.). […]
Only the strips of the antibody plates necessary for the analysis were taken out. […] Incidentally, the standard solutions always were measured for each measurement and each plate. […]

[2] = system: HepG2 cells (human hepatic cells); assay: VLDL secretion inhibition experiment in HepG2 cells (apoB100 ELISA); type: cell-based; conditions: 30 hours, measurement group/control group, DMSO control = 100, average ± standard error
Procedure: A sandwich ELISA that recognized human apoB100 in the VLDL as an antigen was used. First, 100 μL of Moab×LDL Apolipoprotein B (ApoB) (manufactured under MONOSAN®) was dispensed in each well of ELISA PLATE, and the plate was sealed with a sterile seal and then allowed to stand still at 4° C. overnight. In the following, all the dispensing mentioned is for a single well. On the next day, 200 μL of Zepto Block (trade name, manufactured by ZeptoMetrix Corporation) was dispensed, and then the above-noted plate was sealed and allowed to stand still for 2 hours at room temperature for blocking. Subsequently, 100 μL of the medium and the VLDL standard solution were dispensed, and then the plate was sealed and allowed to stand still for 1 hour at room temperature. Washing with 200 μL of PBST and absorption using an aspirator were carried out five times in total. Then, 100 μL of Affinity Purified Anti-Apolipoprotein B (manufactured by Rockland Immunochemicals, Inc.) that had been diluted with PBS by 1000 times was dispensed and allowed to stand still for 1 hour at room temperature. After washing similarly to the above, 100 μL of Donkey Anti-goat IgG HRP (manufactured by Promega Corporation) that had been diluted with PBS by 5000 times was dispensed and allowed to stand still for 1 hour at room temperature. […] 100 μL of 1M phosphoric acid solution was added to the above-noted mixture solution, and the absorbance at 450 nm was measured using wallac ARVOsx (trade name, PerkinElmer Life Sciences, PerkinElmer, Inc.). […]
HepG2 was cultured to 80% to 90% confluence in a 100 mm/Collagen-Coated Dish (trade name, manufactured by Iwaki Glass Works, Co.). […] Using this collected medium, the number of living cells were counted, and the Western blotting and the ELISA measurement were carried out similarly to the above. From the result of the ELISA, the ratio of the VLDL secretion amount between the measurement group and the non-treated control group (measurement group/control group) was calculated for each sample.

CC(C)=CCC/C(C)=C/COc1c2ccoc2cc2oc(=O)ccc12 [Bergamottin, bergamottin]
Adiponectin secretion amount ([1]; 1 μM): 4.37 ± 0.12 | Adiponectin secretion amount ([1]; 5 μM): 8.14 ± 0.36 | VLDL secretion ratio (%) ([2]; 10 μM): 63.4 ± 10.94% | VLDL secretion ratio (%) ([2]; 20 μM): 65.5 ± 13.21% | VLDL secretion ratio (%) ([2]; 50 μM): 45.9 ± 6.29%
